The subject of assay [1] is IL23p19. In words: LPS Induced IL23p19 in THP-1 Cells (with IFNγ Primed) Assay. In kind it is cell-based. Conditions: Homo sapiens, IFNγ primed (50 ng/mL), LPS 1 ug/mL, 18 hours, 10 pt, read-out: IL23-p19 ELISA, THP1-IFNy, LPS, 10 pt EC50. The source says:
LPS Induced IL23p19 in THP-1 Cells (with IFNγ Primed) Assay
THP-1 Cells (ATCC, Cat # TIB-202), Dimethyl Sulfoxide (DMSO) (Sigma-Aldrich, Cat # D2650), RPMI 1640 (Cellgro, Cat #10-040-CM), Fetal Bovine Serum (Sigma, Cat # F4135), Albumin From Bovine Serum (BSA) (Sigma-Aldrich, Cat # A7906), LPS (Serotype K-235, Sigma, Product Number L 2143), IFNγ (Peprotech, Cat #300-02)
Capture antibody: Human IL-23p19 ELISA (e-Bioscience, Cat. #14-7238-85),
Detection antibody: Primary Mouse Biotinylated anti-human IL-12(p40/p70) (e-Bioscience, Cat. #13-7129-85), Secondary HRP-conjugated Streptavidin (R&D Systems, Cat # DY998), 1×PBST Washing Buffer (PBS-Tween tablet) (VWR International, Cat #80058-558), ELISA Blocking Buffer (PBS with 1% BSA), ELISA Dilution Buffer (PBS with 1% BSA), 384 Well Flat-Bottom, MaxiSorp Black Immuno Plates (Thermo Scientific, Cat #12-565-346), 384 Well Flat-Bottom, White Tissue Culture Plates (Thermo Scientific, Cat #12-565-343), Super Signal ELISA Pico Chemiluminescent Substrate (Thermo Scientific, Cat #37070), Cell Titer Glo reagent (Promega, Cat # G7573), Positive control, IKK2VI inhibitor (Calbiochem, Cat #401483), AquaMax 4000 plate washer (Molecular Devices), Luminometer, Wallac Victor2 1420 Multilabel Counter. Method THP-1 Cells Stimulation:
On day 1, 50K/well THP-1 cells were seeded and primed with IFNγ (50 ng/mL) in 384-well plates for about 18 hours in RPMI media with 10% FBS. On day 2, the compound was serially diluted in DMSO from 5 mM in 3-fold dilutions, and then diluted 1:125 in RPMI media with 10% FBS. 50 μL/well 2× compound was added to 50 μL/well THP-1 cells (with IFNγ primed) in duplicate in 384 well tissue culture plates. The cells were pre-incubated with compound for 1 hour at 37° C., 5% CO2 before addition of 10 μL/well 11×LPS to give a final concentration of 1 ug/mL LPS. Day 3, after stimulation for 18 hours at 37° C., 5% CO2, the assay plate was centrifuged and 70 μL/well supernatant was harvested. IL-23p19 protein in 70 μL/well of supernatant was measured by sandwich ELISA, and 25 μl/well Cell Titer Glo reagent was added to the remaining cells to measure compound toxicity.
Human IL-23p19 Sandwich ELISA:
Maxisorp immuno ELISA plates were pre-coated with 25 μL/well of anti-IL-23p19 capture antibody (2.5 ug/mL) in PBS overnight at room temperature. After washing with 1×PBST, the plates were blocked using 100 μL/well of 1% BSA in PBS for 2 hours at room temperature. The plates were washed three times with 1×PBST and 70 μL/well supernatant were added. The plates were incubated at room temperature for 2 hours with shaking and washed three times with 1×PBST. 25 μL/well of biotin labeled anti-IL-12(p40/p70) detection antibody (100 ng/mL) in PBS with 1% BSA was added and the plates were incubated at room temperature for 2 hours with shaking. After washing three times with 1×PBST, 25 μL/well of streptavidin-HRP (1:200) in PBS with 1% BSA was added and the plates were incubated at room temperature for 20 minutes with shaking. The plates were washed three times with 1×PBST and 25 μL/well of Super Signal ELISA Pico Chemiluminescent Substrate were added. The plates were read with a luminometer, and the chemiluminescence values were entered into Athena (Rigel) for curve fitting, EC50 calculation, and database storage.

Assay [2] deals with IL23-p19. In words: Compound screening using DC cells: LPS-induced IL-23 (p19/p40) ELISA in IFNγ-primed dendritic cells differentiated from human PBMC. The assay is classed as cell-based. To be noted: Dendritic cell, human PBMC-derived dendritic cells, LPS 1 μg/ml, 18 hours, 10 pt. As for the experimental part: Compound Screening Using DC Cells
Human PBMC cells (400 million) obtained from the vendor were transferred into a T-175 flask containing 15 ml RPMI media (10% FBS) and incubate for 2 hours at 37° C. After 2 hours, the media including floating cells was aspirated out carefully and 12 ml of fresh RPMI media (10% FBS) containing GMCSF (100 ng/ml) and IL4 (20 ng/ml) was added, and the flask was kept in a 37° C. incubator for 7 days.
After 3 days, fresh GMCSF (100 ng/ml) and IL4 (20 ng/ml) were added to the flask and the incubation continued. After 7 days, the fully differentiated cells were harvested by spinning down (1200 rpm/5 min) and aspirating the media. The cells were suspended in fresh RPMI media (10% FBS) containing 50 ng/ml IFNγ (1000 U/ml) and then plated (50K/well in 100 μl) onto a white clear bottom 96 well plate and left in a 37° C. incubator for 24 hours.
After 24 hours incubation, 100 μl of RPMI media was added containing 2× concentrated test compound per well to the above cell-culture media (final concentration becomes 1×) and the plates were pre-incubated for 1 hour at 37° C. before stimulating with LPS.
After 1 hour compound pre-incubation, 10 μl per well of 20× concentrated LPS solution in RPMI media was added to give a final concentration of 1 μg/ml. The mixture was shaken and incubated the plates at 37° C. for an additional 18 hours.
155 μl of the supernatant was harvested from each well carefully (without the tip touching the bottom of the well) and to the remaining 50 μl/well of the cell culture plate was added 50 μl of Cell Titer Glo reagent. The mixture was incubated for 1-2 minutes on a shaker and the plate was read for luminescence intensity to determine the compound cytotoxicity. The cell culture supernatant collected above was used to carry out IL23 ELISA (65 μl—Supernatant) and IL10 ELISA (90 μl—Supernatant) as described below.
Human IL-23 (p19/p40) ELISA Protocol (e-Biosciences)
To 10.5 ml PBS add 50 μl of anti-IL23 (p19) was added capture antibody (2.5 μg/ml). The mixture was mixed well and 100 μl of the coating solution was added to each well of the 96 well white plates from Pierce. The wells were covered and incubated overnight at 4° C.
The anti-IL23 (p19)-antibody-coated plates were washed 2× using TBST (use plate washer) and blocked using 200 μl of 0.5% Casein for 1.5-2 hours at room temperature with shaking.
The plates were washed 2× using TBST and the supernatant was transferred (65 μl/well) to the above pre-blocked/IL23(p19)-antibody-coated 96 well plate, and incubated at room temperature for 1.5 hours with shaking.
The plates were washed 4× using TBST (plate washer) and 100 μl/well detection antibody solution prepared from 2 μl of biotin labeled anti-IL-12 (p40/p70) antibody in 11 ml 1% BSA/PBS solution (I-5000 dilution) was added. The plates were incubated for 1 hour with shaking at Room temperature.
Again, the plates were washed 4× with TBST and 100 μl of HRP labeled Streptavidin (R&D Systems) solution (10 μl/10 ml 1% BSA solution) was added, and the plates were incubated at room temperature for another 45 minutes with shaking.
After 45 minutes, the plates were washed with TBST 4× and 100 ul/well Super Signal ELISA Pico Chemiluminescent Substrate from Pierce (3.5 ml A+3.5 ml B+3.5 ml MQ water) was added. The plates were shaken for 1-2 minutes then read on a plate reader.

The source of these data is US10774076B2, “Benzazole compounds and methods for making and using the compounds” (Rigel Pharmaceuticals, Inc., priority 2015, dated 2020).

As to `CN1CCN(c2nc3cc(N4CCCCC4)c(NC(=O)c4ccc(-c5cn[nH]c5)o4)cc3o2)CC1` [Compound I-16, N-(2-(4-methylpiperazin-1-yl)-5-(piperidin-1-yl)benzo[d]oxazol-6-yl)-5-(1H-pyrazol-4-yl)furan-2-carboxamide], the EC50 came to 0.0258 µM in assay [1] and 0.0322 µM in assay [2].
The like results for `CN(CCN1CCOCC1)c1nc2cc(N3CCCCC3)c(NC(=O)c3csc(-c4cn[nH]c4)n3)cc2o1` [Compound I-54, N-(2-(methyl(2-morpholinoethyl)amino)-5-(piperidin-1-yl)benzo[d]oxazol-6-yl)-2-(1H-pyrazol-4-yl)thiazole-4-carboxamide] were, in that order, 0.106 µM and 0.0603 µM.
As to `CN1CCN(c2nc3cc(N4CCCCC4)c(NC(=O)c4csc(-c5cc[nH]n5)n4)cc3o2)CC1` [Compound I-21, N-(2-(4-methylpiperazin-1-yl)-5-(piperidin-1-yl)benzo[d]oxazol-6-yl)-2-(1H-pyrazol-3-yl)thiazole-4-carboxamide], the EC50 in assay [1] worked out at 2.18 µM; in assay [2], 1.71 µM.
On the same counts, the results for `CN1CCN(c2nc3cc(N4CCCCC4)c(NC(=O)c4csc(-c5ccc(N)nc5)n4)cc3o2)CC1` [Compound I-19, 2-(6-aminopyridin-3-yl)-N-(2-(4-methylpiperazin-1-yl)-5-(piperidin-1-yl)benzo[d]oxazol-6-yl)thiazole-4-carboxamide] are 0.938 µM and 0.674 µM.
With `O=C(Nc1cc2oc(N3CCOCC3)nc2cc1N1CCCC(F)C1)c1csc(-c2cn[nH]c2)n1` (stereo not shown) [Compound I-40, N-(5-(3-fluoropiperidin-1-yl)-2-morpholinobenzo[d]oxazol-6-yl)-2-(1H-pyrazol-4-yl)thiazole-4-carboxamide], the EC50 stood at 0.025 µM in assay [1] and 0.041 µM in assay [2].
Consider `Cc1cc(-c2nc(C(=O)Nc3cc4oc(N5CCN(C)CC5)nc4cc3N3CCCCC3)cs2)ccn1` [Compound I-22, N-(2-(4-methylpiperazin-1-yl)-5-(piperidin-1-yl)benzo[d]oxazol-6-yl)-2-(2-methylpyridin-4-yl)thiazole-4-carboxamide], for which the results for the EC50 in assay [1] and in assay [2] were 0.677 µM and 3.18 µM, respectively.
The like results for `O=C(Nc1cc2oc(N3CCOCC3)nc2cc1N1CCCCC1)c1ccc(-c2cc[nH]n2)o1` [Compound I-4, N-(2-morpholino-5-(piperidin-1-yl)benzo[d]oxazol-6-yl)-5-(1H-pyrazol-3-yl)furan-2-carboxamide] were, in that order, 0.901 µM and 12.1 µM.
As for `Cc1cc(-c2ccc(C(=O)Nc3cc4oc(N5CCOCC5)nc4cc3N3CCC(F)CC3)o2)ccn1` [Compound I-24, N-(5-(4-fluoropiperidin-1-yl)-2-morpholinobenzo[d]oxazol-6-yl)-5-(2-methylpyridin-4-yl)furan-2-carboxamide], the 50% effective concentration (EC50) in assay [1] was determined as 1.08 µM; in assay [2] it was 5.77 µM.
As to `O=C(Nc1cc2oc(N3CCOCC3)nc2cc1N1CCCC(F)(F)C1)c1ccc(-c2cn[nH]c2)o1` [Compound I-42, N-(5-(3,3-difluoropiperidin-1-yl)-2-morpholinobenzo[d]oxazol-6-yl)-5-(1H-pyrazol-4-yl)furan-2-carboxamide], the EC50 in assay [1] came out at 0.0606 µM; in assay [2], 0.0848 µM.
Regarding `Cc1cc(-c2ccc(C(=O)Nc3cc4oc(N5CCOCC5)nc4cc3N3CCCC(F)C3)o2)ccn1` (stereo not shown) [Compound I-39, N-(5-(3-fluoropiperidin-1-yl)-2-morpholinobenzo[d]oxazol-6-yl)-5-(2-methylpyridin-4-yl)furan-2-carboxamide], the EC50 was found to be 0.355 µM in assay [1] and 8.07 µM in assay [2].
Regarding `Cc1cc(-c2ccc(C(=O)Nc3cc4oc(N5CCOCC5)nc4cc3N3CCCC(F)(F)C3)o2)ccn1` [Compound I-43, N-(5-(3,3-difluoropiperidin-1-yl)-2-morpholinobenzo[d]oxazol-6-yl)-5-(2-methylpyridin-4-yl)furan-2-carboxamide], the concentration for a half-maximal effect (EC50) in assay [1] worked out at 0.344 µM; in assay [2], 2.62 µM.
As for `O=C(Nc1cc2oc(N3CCCCC3)nc2cc1N1CCCCC1)c1ccc(-c2cc[nH]n2)o1` [Compound I-32, N-(2,5-di(piperidin-1-yl)benzo[d]oxazol-6-yl)-5-(1H-pyrazol-3-yl)furan-2-carboxamide], the EC50 in assay [1] came to 1.78 µM; in assay [2] it was 24.1 µM.
For the compound `Cc1cc(-c2ccc(C(=O)Nc3cc4sc(N5CCOCC5)nc4cc3N3CCCCC3)o2)ccn1` [Compound I-9, 5-(2-methylpyridin-4-yl)-N-(2-morpholino-5-(piperidin-1-yl)benzo[d]thiazol-6-yl)furan-2-carboxamide], the EC50 was found to be 52.1 µM in assay [1] and 0.897 µM in assay [2].
On to `Cc1cc(-c2nc(C(=O)Nc3cc4oc(N5CCOCC5)nc4cc3N3CCCC(F)(F)C3)cs2)ccn1` [Compound I-45, N-(5-(3,3-difluoropiperidin-1-yl)-2-morpholinobenzo[d]oxazol-6-yl)-2-(2-methylpyridin-4-yl)thiazole-4-carboxamide], for which the EC50 in assay [1] is 0.342 µM; in assay [2], 0.402 µM.
